# From patent US20220220480A1, “METHODS AND COMPOSITIONS FOR TREATMENT OF NLRP3 IN[…] IL-1BETA DEPENDENT DISORDERS” (priority 2019, published 2022)
# Columns and labels:
# [1] = Imiquimod induced psoriasis-like phenotype, adapted PASI score; assay type: in vivo, C57BL/6J mice; details: day 4 of imiquimod administration, AZ13711265 10 mg/kg intraperitoneally daily; for Erythema score (PASI) / Scaling score (PASI): scale 0-4
# Protocol: FIG. 5: 8 weeks old C57BL/6J mice were shaved two days before the experiment. One day before administration of imiquimod and daily for 5 days, mice were intraperitoneally injected with vehicle (60% PEG, 40% PBS) or with the Pak1 inhibitor AZ13711265 (10 mg/kg). Mice were treated in the back daily for 4 days either with Vaseline or with Aldara cream corresponding to 3,125 mg of imiquimod (IMQ) to induce psoriasis-like phenotype. The erythema and scaling was analyzed by an adapted version of the clinical PASI score, 0: none; 1: slight; 2: moderated; 3: strong; 4: very strong phenotype. The total score is the cumulative score of scaling and erythema. Results are expressed as mean±SEM. p-value: *<0.01, ***<0.001, compared to control
# Futhermore, we investigated the effect of Pak1 kinase inhibitor on a psoriasis model. Dermal application of imiquimod induced a psoriasis-like phenotype including scaling and erythema that are scored using the PASI score.
# Caspase-1 activation = test: FAM-FLICA Caspase-1 activation assay by microscopy in BMDMs; assay type: cell-based, mouse; details: for Block of CNF1-triggered Caspase-1 activity/activation measured using FAM-FLICA: BMDMs, inhibitor 45 min before CNF1 500 ng/mL, 1 μM MCC950, 5 μM IPA-3, 1 μM FRAX597 (FIG. 1b, 2d)
# Protocol: Bone-marrow derived macrophages (BMDMs) were extracted from femurs of 6-10 weeks-old BALB/c, C57BL/6J or C57BL/6J KO mice as indicated in the figure legends and were cultured in RPMI GlutaMax medium (Life Technologies) supplemented with 100 ng/mL M-CSF (Premium grade, Miltenyi Biotec), 10% heat-inactivated FBS (Biowest) and 50 μg/mL gentamycin (Life Technologies) at 37° C. in an atmosphere containing 5% CO2. The cells were seeded at a concentration of 10^6 cells per well in a 6-well plate. After 6 days of differentiation, BMDMs were used for experiments. NLRP3, NLRC4, PYRIN, and GSDMD knock-out BMDMs were a kind gift from M. Lamkanfi. […] SiRNAs were transfected in HEK 293T cells or BMDMs during 72 h using Lipofectamine RNAiMAX Reagent (ThermoFisher Scientific) according to the manufacturer instructions. Cells were transfected as indicated in figure legends with siRNAs targeting NLRP3 (L-053455-00, Dharmacon), Rac1 (L-041170-00, Dharmacon), Rac2 (L-041171-01, Dharmacon), Nek7 (J-063266-09, Dharmacon), PAK1 (L-048101-00, Dharmacon), PAK2 (L-040615-00, Dharmacon) or non-targeting control siRNA (D-001810-10, Dharmacon). […] Cells pre-treated with ultrapure LPS for 6 h followed by the addition of Nigericin 504 (Invivogen) or ATP 5 mM (Invivogen) for 30 minutes were used as positive control of NLRP3 inflammasome activation.
# Caspase 1 activation was detected using the fluorescent probe FAM-FLICA (ImmunoChemistry Technologies) after 6 h of treatment, according to the manufacturer instructions. After labelling, cells were fixed in 4% paraformaldehyde for 15 min and blocked with 2% TBS-BSA. Cells were incubated with mouse anti-NLRP3 antibody (clone Cryo-2, Adipogen) for 1 hour followed by incubation with secondary antibody TexasRed anti-mouse IgG (TI-2000, Vector Laboratories) and Hoechst (Thermo Fisher Scientific) for 30 minutes. Cells were imaged using Nikon MR confocal microscope. […]
# Primary bone marrow derived macrophages (BMDMs) were treated with CNF1 for 6 hours to trigger Caspase-1 activation. […] Cells with dots of FAM-FLICA staining were determined as positive (data not shown). […] To this aim, BMDMs were transfected with a siRNA library targeting mouse NLRs and Caspase-1 activation was monitored as previously described. […]
# IL-1β maturation = IL-1β maturation by immunoblot in BMDMs treated with LPS and CNF1; assay type: cell-based, mouse; details: 5 μM IPA-3 or 1 μM FRAX597 45 min before CNF1 500 ng/mL and LPS 100 ng/mL 8 h (FIG. 2c)
# Protocol: (a-b) BMDMs isolated from BALB/c mice were transfected for 72 h with siRNA targeting either NLRP3, Nek7, Pak1, Pak2 as indicated and non-targeting siRNA were used as control. […] (c) Supernatants and cell lysates were analyzed by immunoblot. […] Active Caspase 1 was stained with FAM-FLICA, analyzed by microscopy and FAM-FLICA positive cells were counted. (n=1000 per conditions). p-value ****<0.0001, compared to the CNF1-treated BMDMs (e) HEK293T cells were transfected with plasmids encoding NLRP3 inflammasome component (myc-NLRP3, ASC-GFP, mCaspase-1) together with Flag-Rac2Q61E (Q61E), myc-Pak1 wild type (WT) or myc-Pak1T423E (T423E) and caspase-1 cleavage was analyzed by immunoblot.
# HEK 293T cells were obtained from ATCC (CRL-3216) and maintained according to ATCC instructions. Bone-marrow derived macrophages (BMDMs) were extracted from femurs of 6-10 weeks-old BALB/c, C57BL/6J or C57BL/6J KO mice as indicated in the figure legends and were cultured in RPMI GlutaMax medium (Life Technologies) supplemented with 100 ng/mL M-CSF (Premium grade, Miltenyi Biotec), 10% heat-inactivated FBS (Biowest) and 50 μg/mL gentamycin (Life Technologies) at 37° C. in an atmosphere containing 5% CO2. The cells were seeded at a concentration of 10^6 cells per well in a 6-well plate. After 6 days of differentiation, BMDMs were used for experiments. […]
# E. coli expressing CNF1 = test: Mouse model of bacteremia with E. coli expressing CNF1; assay type: in vivo; details: BALB/c mice, 48 h after infection
# Protocol: Data are expressed as the geometric mean±95 CI *p<0.05.
# Mice were injected intravenously with 10^7 CFUs of E. coli as previously described^8. For the determination of bacteremia, blood was collected from the tail vein at the indicated times post-infection, serially diluted in sterile PBS and plated on LB plates containing streptomycin (200 μg/ml) and the plates were incubated for 16 h at 37° C. Injection quality was controlled by plating blood samples obtained from the mice at 5 min after injection. NLRP3 knock-out mice were kindly provided by V. Petrilli and have been previously described^21. Female NLRP3 KO and female congenic WT C57BL/6J littermate mice were injected intravenously with 10^7 CFUs of E. coli and the determination of bacteremia was monitored as previously described^8.
# Mice were infected with the same strain and concentration of CNF1 expressing E. coli and the bacteremia was measured on each infected mouse at 0 h, 4 h, 24 h and 48 h.
SMILES,Total PASI score (cumulative score of scaling and erythema) [1],Erythema score (PASI) [1],Scaling score (PASI) [1],Block of CNF1-triggered Caspase-1 activity/activation measured using FAM-FLICA (Caspase-1 activation),Block of IL-1β maturation in macrophages treated with LPS and CNF1 (IL-1β maturation),further results
CCS(=O)(=O)c1cc(Nc2ncc(F)c(N(C)c3cc(CO)c(C)cc3C)n2)ccc1N1C[C@@H]2C[C@H]1CN2C [AZ13711265],3.1,1.4,1.7,,,
CCn1c(=O)c(-c2ccc(-c3cncs3)cc2Cl)cc2cnc(Nc3ccc(N4CCN(C)CC4)cc3)nc21 [FRAX597],,,,sufficient to block,sufficient to block,
Oc1ccc2ccccc2c1SSc1c(O)ccc2ccccc12 [IPA-3],,,,sufficient to block,sufficient to block,
CC(C)(O)c1coc(S(=O)(=O)NC(=O)Nc2c3c(cc4c2CCC4)CCC3)c1 [MCC950],,,,sufficient to block,,"Animals found positive for bacteria (E. coli expressing CNF1; MCC950 50 mg/kg IP once a day, control group 0): 56%; Bacterial load compared to control group (E. coli expressing CNF1; MCC950 50 mg/kg IP): statistically significant higher"
CO[C@@H]1C[C@@H](C[C@H]2CC[C@H](C)[C@H]([C@@H](C)C(=O)O)O2)O[C@]2(O[C@](C)([C@H]3CC[C@@](C)([C@@H]4O[C@@H]([C@H]5O[C@@](O)(CO)[C@H](C)C[C@@H]5C)C[C@@H]4C)O3)C[C@H]2C)[C@@H]1C [Nigericin],,,,,,"FAM-FLICA positive cells (mean) (Caspase-1 activation; WT BMDMs (FIG. 1b), control condition 2.5%): 15.4%"
CC(C)Cn1cnc2c(N)nc3ccccc3c21 [imiquimod],6.5,3,3.5,,,
